# Experimental data reported in patent US12102085B2, “Insecticidal active mixtures comprising carboxamide compound” (priority 2013, dated 2024).
# Key:
# Type in all cases: in vivo
# [1] = test system: yellow fever mosquito (Aedes aegypti); experiment: Test B.3 Control of yellow fever mosquito, larvae in 96-well microtiter plates; conditions: 2 days, larval mortality
# Procedure: Test Principle: Curative Ultrasonic Spraying of Larvae in Liquid Diet
# For evaluating control of yellow fever mosquito (Aedes aegypti) the test unit consisted of 96-well-microtiter plates containing 200 μl of tap water per well and 5-15 freshly hatched A. aegypti larvae.
# The compounds or mixtures were formulated using a solution containing 75% (v/v) water and 25% (v/v) DMSO. Different concentrations of formulated compounds or mixtures were sprayed onto the insect diet at 2.5 μl, using a custom built micro atomizer, at two replications.
# (§1) For the experimental mixtures in this test identical volumes of both mixing partners at the desired concentrations respectively, were mixed together.
# After application, microtiter plates were incubated at 28±1° C., 80±5% RH for 2 days.
# Larval mortality was then visually assessed.
# [2] = test system: vetch aphid (Megoura viciae); experiment: Test B.1 Control of vetch aphid, sprayed broad bean leaf disks in 24-well microtiter plates; conditions: 5 days, aphid mortality and fecundity
# Procedure: For evaluating control of vetch aphid (Megoura viciae) through contact or systemic means the test unit consisted of 24-well-microtiter plates containing broad bean leaf disks.
# The compounds or mixtures were formulated using a solution containing 75% (v/v) water and 25% (v/v) DMSO. Different concentrations of formulated compounds or mixtures were sprayed onto the leaf disks at 2.5 μl, using a custom built micro atomizer, at two replications.
# as §1
# After application, the leaf disks were air-dried and 5-8 adult aphids placed on the leaf disks inside the microtiter plate wells. The aphids were then allowed to suck on the treated leaf disks and incubated at 23±1° C., 50±5% RH for 5 days.
# Aphid mortality and fecundity was then visually assessed.
# [3] = test system: Southern Green Stink Bug (Nezara viridula); experiment: Test B.6 Control of Southern Green Stink Bug, dipped green beans and dipped insects; conditions: for Average Control % [observed mortality]: Nezara viridula 4th instar, 5 ppm, after 5 days
# Procedure: The compounds and respective mixtures were formulated using a solution containing 50:50 water:acetone with 0.01 wt % Kinetic®. Whole Green Beans were rinsed in a 1% bleach solution, triple rinsed with DI water, and allowed to air dry at least 30 minutes in the fume hood. They were dipped in treatment solutions for approximately 5 seconds and allowed to air dry for another 30 minutes in the fume hood. For maximum exposure, Southern Green Stink Bugs (SGSB, 4th instar) were dipped in treatment solution for approximately 3 seconds and allowed to air dry in a cup lined with filter paper and closed with a vented lid for approximately 10 minutes in the fume hood. Three beans were placed in cups with a dry filter paper in the bottom and a portion cup with a cotton wick for water (=assay arena), and were infested with 4 SGSB per cup. Each treatment was replicated 3-fold (1 replicate=3 beans with 4 SGSB). The assays arenas were held at 27° C. and 45% room humidity. Data were recorded after 5 days as number of insects alive and dead. Nezara viridula mortality (%) was calculated as: [(pre-treatment count−post treatment count)/pre-treatment count]×100.
# [4] = test system: tobacco budworm (Heliothis virescens); experiment: Test B.4 Control of tobacco budworm, insect diet with eggs in 96-well microtiter plates; conditions: 5 days, egg and larval mortality
# Procedure: For evaluating control of tobacco budworm (Heliothis virescens) the test unit consisted of 96-well-microtiter plates containing an insect diet and 15-25 H. virescens eggs.
# The compounds or mixtures were formulated using a solution containing 75% (v/v) water and 25% (v/v) DMSO. Different concentrations of formulated compounds or mixtures were sprayed onto the insect diet at 10 μl, using a custom built micro atomizer, at two replications.
# as §1
# (§2) After application, microtiter plates were incubated at 28±1° C., 80±5% RH for 5 days.
# (§3) Egg and larval mortality was then visually assessed.
# [5] = test system: boll weevil (Anthonomus grandis); experiment: Test B.2 Control of boll weevil, insect diet with eggs in 24-well microtiter plates; conditions: 5 days, egg and larval mortality
# Procedure: For evaluating control of boll weevil (Anthonomus grandis) the test unit consisted of 24-well-microtiter plates containing an insect diet and 20-30 A. grandis eggs.
# The compounds or mixtures were formulated using a solution containing 75% (v/v) water and 25% (v/v) DMSO. Different concentrations of formulated compounds or mixtures were sprayed onto the insect diet at 20 μl, using a custom built micro atomizer, at two replications.
# as §1
# After application, microtiter plates were incubated at 23±1° C., 50±5% RH for 5 days.
# as §3
# [6] = test system: Mediterranean fruitfly (Ceratitis capitata); experiment: Test B.5 Control of Mediterranean fruitfly, insect diet with eggs in 96-well microtiter plates; conditions: 5 days, egg and larval mortality
# Procedure: For evaluating control of Mediterranean fruitfly (Ceratitis capitata) the test unit consisted of 96-well-microtiter plates containing an insect diet and 50-80 C. capitata eggs.
# The compounds and respective mixtures were formulated using a solution containing 75% (v/v) water and 25% (v/v) DMSO. Different concentrations of formulated compounds and mixtures were sprayed onto the insect diet at 5 μl, using a custom built micro atomizer, at two replications. For the experimental mixtures in this test identical volumes of both mixing partners at the desired concentrations respectively, were mixed together.
# as §2, §3
# [7] = Nezara viridula, 120 h, read-out: Average Control % [observed mortality]
compound,measurement,setting,value
"Cc1c(COC(=O)[C@@H]2[C@H](/C=C(\Cl)C(F)(F)F)C2(C)C)cccc1-c1ccccc1 (racemic) [Bifenthrin, bifenthrin]",Average Control %,[1]; 40 + 0 ppm,0%
"CC(C)(C)[C@]1(O)C[C@@H]2OC(=O)C[C@@]23C(=O)O[C@@H]2OC(=O)[C@H](O)[C@]213 [Bilobalid, (3aS,5aR,8aS,9R,10aR)-9-tert-butyl-8,9-dihydroxydihydro-9H-furo[2,3-b]furo[3′,2′;2,3]cyclopenta[1,2-c]furan-2,4,7(3H,8H)-trione]",Average Control %,[2]; 25 ppm,0%
same,Average Control % [observed mortality],[3],19%
"C[C@@H]1C(=O)O[C@H]2C[C@@]34[C@H]5C[C@@H](C(C)(C)C)[C@]36[C@@H](OC(=O)[C@@H]6O)O[C@@]4(C(=O)O5)[C@]21O [Ginkolide A, ginkgolide A]",Average Control % [observed mortality],[3],13%
"O=[N+]([O-])NC1=NCCN1Cc1ccc(Cl)nc1 [Imidacloprid, imidacloprid]",Average Control %,[4]; 0.4 ppm,0%
same,Average Control %,[5]; 10 ppm,0%
same,Average Control %,[6]; 10 ppm,25%
"O=C(NC(=O)c1c(F)cccc1F)Nc1cc(Cl)c(F)c(Cl)c1F [Teflubenzuron, teflubenzuron]",Average Control %,[2]; 2 ppm,0%
same,Average Control %,[4]; 50 ppm,0%
CN(C(=O)c1ccccc1)c1cccc(C(=O)Nc2c(Br)cc(C(F)(C(F)(F)F)C(F)(F)F)cc2C(F)(F)F)c1F [carboxamide compound of formula I],Average Control %,[2]; 0.02 ppm,0%
same,Average Control %,[2]; 0.5 ppm,0%
same,Average Control %,[4]; 0.1 ppm,0%
same,Average Control %,[4]; 0.5 ppm,50%
same,mortality at 1 ppm,[3]; [7],13%
same,mortality at 10 ppm,[3]; [7],88%
same,Average Control %,[5]; 0.5 ppm,0%
same,Average Control %,[6]; 0 ppm (so in the source),0%
same,Average Control %,[1]; 0 + 0.5 ppm,0%
